Read-outs that look alike come from different tables or passages of the source.
Legend:
Mnk2 = Mnk2 (Homo sapiens (Human), UniProt Q9HBH9); assay: Mnk2 kinase inhibition, ADP-Glo ADP monitoring assay; type: biochemical; settings: ADP-Glo kinase assay
Mnk1 = Mnk1 (Homo sapiens (Human), UniProt Q9BUB5); assay: Mnk1 kinase inhibition, ADP-Glo ADP monitoring assay; type: biochemical
[1] = read-out: Mnk2 inhibition IC50 (+,++,+++)
[2] = read-out: Mnk1 inhibition IC50 (+,++,+++)

Chain of Mnk2 (Q9HBH9 whole entry): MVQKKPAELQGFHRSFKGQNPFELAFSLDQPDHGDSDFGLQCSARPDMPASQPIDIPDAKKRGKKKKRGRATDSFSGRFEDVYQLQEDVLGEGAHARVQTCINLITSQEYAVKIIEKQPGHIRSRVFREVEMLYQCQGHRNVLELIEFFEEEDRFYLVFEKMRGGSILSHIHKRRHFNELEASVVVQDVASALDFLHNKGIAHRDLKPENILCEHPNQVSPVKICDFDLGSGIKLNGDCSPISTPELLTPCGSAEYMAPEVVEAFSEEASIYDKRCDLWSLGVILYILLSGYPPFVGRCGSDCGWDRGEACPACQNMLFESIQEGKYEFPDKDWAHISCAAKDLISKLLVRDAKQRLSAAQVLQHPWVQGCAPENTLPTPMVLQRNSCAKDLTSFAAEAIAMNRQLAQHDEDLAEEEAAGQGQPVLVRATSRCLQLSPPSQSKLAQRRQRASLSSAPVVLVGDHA
Chain of Mnk1 (Q9BUB5 whole entry): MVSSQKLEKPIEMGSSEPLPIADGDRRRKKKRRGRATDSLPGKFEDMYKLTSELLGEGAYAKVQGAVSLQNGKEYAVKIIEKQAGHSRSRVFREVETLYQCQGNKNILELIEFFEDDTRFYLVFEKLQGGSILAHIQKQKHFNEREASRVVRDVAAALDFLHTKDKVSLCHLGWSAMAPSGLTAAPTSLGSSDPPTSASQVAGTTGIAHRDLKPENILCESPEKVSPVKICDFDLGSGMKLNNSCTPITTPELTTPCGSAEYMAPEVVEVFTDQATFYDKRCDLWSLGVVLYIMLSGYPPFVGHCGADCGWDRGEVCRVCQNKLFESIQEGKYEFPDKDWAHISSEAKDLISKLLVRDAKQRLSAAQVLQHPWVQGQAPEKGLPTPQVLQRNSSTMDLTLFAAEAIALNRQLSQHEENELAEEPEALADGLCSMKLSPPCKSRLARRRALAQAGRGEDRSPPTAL

SMILES	IC50 (Mnk1; read-out: Mnk1 IC50) [µM]	further results
NC1CC(Oc2nc(-n3cnc4ccccc43)c3ccccc3n2)C1 (stereo not drawn) [NUCC-0201894]		IC50 (Mnk2; [1]): < 1 µM; IC50 (Mnk1; [2]): < 1 µM
c1ccc(Cn2cc(-c3ccnc(NCCc4c[nH]cn4)n3)cn2)cc1 [NUCC-0060971]	19	
c1cnc2ncn(-c3ccnc(NC4CCOC4)n3)c2c1 (stereo not drawn) [NUCC-0176142]	13	IC50 (Mnk2; read-out: Mnk2 IC50): 5.3 µM
COc1cccc(-c2cn(-c3ccnc(NCCc4c[nH]cn4)n3)c3ccccc23)c1 [NUCC-0125599]	29	IC50 (Mnk2; read-out: Mnk2 IC50): 6.2 µM
COc1cccc(-n2cc(-c3ccnc(NCCc4c[nH]cn4)n3)cn2)c1 [NUCC-0054133]	7	IC50 (Mnk2; read-out: Mnk2 IC50): 1.8 µM
COc1cccc(-n2cc(-c3ccnc(NC4CCNC4)n3)cn2)c1 (stereo not drawn) [NUCC-0125590]	6	IC50 (Mnk2; read-out: Mnk2 IC50): 0.78 µM
CNC(=O)c1ccc(Nc2nccc(-n3cnc4ccccc43)n2)cc1 [NUCC-0125596]	0.2	IC50 (Mnk2; read-out: Mnk2 IC50): 0.034 µM
O=c1oc2ccccc2n1-c1ccnc(NCCc2ccncc2)n1 [NUCC-0176353]	9.5	IC50 (Mnk2; read-out: Mnk2 IC50): 6.8 µM
NC(=O)c1ccc(Nc2nccc(-n3cnc4ccccc43)n2)cc1 [NUCC-0125594]	0.7	IC50 (Mnk2; read-out: Mnk2 IC50): 0.03 µM
c1ccc2c(c1)ncn2-c1cc(NCCc2ccncc2)cnn1 [NUCC-0176338]		Mnk2 IC50 (Mnk2): no activity; Mnk1 IC50 (Mnk1): no activity
Cn1cc(-c2ccnc(N3CCC[C@H]3CO)n2)cn1 [NUCC-0060896]	3	IC50 (Mnk2; read-out: Mnk2 IC50): 3.4 µM
Clc1cnc(NCCc2cccnc2)nc1-n1cnc2ccccc21 [NUCC-0176357]	2.3	IC50 (Mnk2; read-out: Mnk2 IC50): 0.25 µM
c1ccc2c(c1)ncn2-c1nc(OC2CCNC2)ncc1-c1ccsc1 (stereo not drawn) [NUCC-0201902]		IC50 (Mnk2; [1]): < 1 µM; IC50 (Mnk1; [2]): < 1 µM
Clc1cnc(NCCc2c[nH]c3ccccc23)nc1-n1cnc2ccccc21 [NUCC-0176355]	13	IC50 (Mnk2; read-out: Mnk2 IC50): 2.4 µM
COc1cccc(-n2cc(-c3ccnc(NCc4ccncc4)n3)cn2)c1 [NUCC-0077163]	8	
COc1cccc(-n2cc(-c3ccnc(NC4CCNCC4)n3)cn2)c1 [NUCC-0077164]	6	
COc1cccc(-n2cc(-c3ccnc(NCc4ccccc4)n3)cn2)c1 [NUCC-0077155]	21	
Cn1cc(-c2ccnc(NCc3ccc(F)cc3)n2)cn1 [NUCC-0060897]	9	
COc1cccc(-n2cc(-c3ccnc(NCCCN4CCOCC4)n3)cn2)c1 [NUCC-0077154, 4-(1-(3-methoxyphenyl)-1H-pyrazol-4-yl)-N-(3-morpholinopropyl)pyrimidin-2-amine]	28	

SMILES	IC50 (Mnk1; read-out: Mnk1 IC50) [µM]	further results
COc1cccc(-n2cc(-c3ccnc(NC4CCOC4)n3)cn2)c1 (stereo not drawn) [NUCC-0077165]	6	
c1cc(CCNc2nccc(-c3cnn(CCN4CCOCC4)c3)n2)ccn1 [NUCC-0060970]	70	
O=C(c1ccc(Nc2nccc(-n3cnc4ccccc43)n2)cc1)N1CCNCC1 [NUCC-0125597]	6	
CCNc1nccc(-c2cnn(-c3cccc(OC)c3)c2)n1 [NUCC-0054132]	9	
c1ccc2c(c1)ncn2-c1ccnc(NC2CCNCC2)n1 [NUCC-0125584]	1.4	
Cn1cc(-c2ccnc(NCCCN3CCCCC3)n2)cn1 [NUCC-0060895]	5	
c1ccc2c(c1)ncn2-c1ccnc(Nc2ccc(N3CCCCC3)cc2)n1 [NUCC-0125588]	0.2	
Brc1cnc(NCCc2ccncc2)nc1-n1ccnc1 [NUCC-0196229]		IC50 (Mnk2; unit inferred, read-out: Mnk2 IC50): 1.2 µM
CN1CCN(c2ccc(Nc3nccc(-n4cnc5ccccc54)n3)cc2)CC1 [NUCC-0125587]	0.5	
COc1cccc(-n2cc(-c3ccnc(Nc4ccncc4)n3)cn2)c1 [NUCC-0077168]	19	
N#Cc1cnc(-n2cnc3ccccc32)nc1NCCCc1ccncc1 [NUCC-0200914]		IC50 (Mnk2; [1]): < 1 µM
c1ccc2c(c1)ncn2-c1ccnc(N[C@@H]2CCOC2)n1 [NUCC-0176149]		IC50 (Mnk2; read-out: Mnk2 IC50): 0.094 µM
c1ccc2c(c1)ccn2-c1ccnc(NCCN2CCOCC2)n1 [NUCC-0060953]	9	
COc1cccc(-n2cc(-c3ccnc(NC4CCOCC4)n3)cn2)c1 [NUCC-0125591]	21	
c1ccc(-n2cc(-c3ccnc(NCCc4c[nH]cn4)n3)cn2)cc1 [NUCC-0060965]	30	
COc1cccc(-n2cc(-c3ccnc(NCCN(C)C)n3)cn2)c1 [NUCC-0077166]	4	
c1ccc2c(c1)ncn2-c1ccnc(NCc2ccncc2)n1 [NUCC-0125586]	0.5	
COc1cccc(-n2cc(-c3ccnc(NCCN4CCOCC4)n3)cn2)c1 [NUCC-0054138]	12	
Clc1cccc(-n2cc(-c3ccnc(NCc4ccncc4)n3)cn2)c1 [NUCC-0054134]	6	

Source: patent publication US10851082B2, “Substituted aromatic n-heterocyclic compounds as inhibitors of mitogen-activated protein kinase interacting kinase 1 (MNK1) and 2 (MNK2)” (Northwestern University, priority 2015, dated 2020)
